Data published in ChEMBL document CHEMBL3244280, “Thiazolinone analogues of indolmycin with antiviral and antibacterial activity” (J Med Chem, 1978).
Calls of active or inactive are those of the source. The calls are words filed in the database; no cut-off is given here.

Legend:
Staphylococcus aureus [1] = experiment: Antibacterial activity against Staphylococcus aureus Russel up to 200 ug/ml; assay type: functional, organism-based
Human alphaherpesvirus 1 = experiment: Antiviral activity against Herpes simplex virus 1 infected in chick embryo fibroblasts by plaque reduction assay; assay type: functional, organism-based
[2] = Cytotoxicity against BHK cells up to 100 ug/ml by carbol fuschin assay; assay type: cell-based, Mesocricetus auratus; conditions: hamster
Staphylococcus aureus [3] = experiment: Antibacterial activity against Staphylococcus aureus 1517 up to 200 ug/ml; assay type: functional, organism-based
Bacillus subtilis = experiment: Antibacterial activity against Bacillus subtilis up to 200 ug/ml; assay type: functional, organism-based
Streptococcus pyogenes = experiment: Antibacterial activity against Streptococcus pyogenes CN10 up to 200 ug/ml; assay type: functional, organism-based
HeLa = experiment: Cytotoxicity against human HeLa cells up to 100 ug/ml; assay type: cell-based
Enterococcus faecalis = experiment: Antibacterial activity against Streptococcus faecalis I up to 200 ug/ml; assay type: functional, organism-based
Influenza A virus = experiment: Antiviral activity against influenza A virus NWS/H0N1 infected in BHK cells up to 100 ug/ml by agar diffusion assay; assay type: functional, organism-based
Coxsackievirus B1 = experiment: Antiviral activity against Coxsackievirus B1 infected in human HeLa cells up to 100 ug/ml by agar diffusion assay; assay type: functional, organism-based
Staphylococcus aureus [4] = experiment: Antibacterial activity against Staphylococcus aureus Oxford up to 200 ug/ml; assay type: functional, organism-based

Row | Structure (SMILES) | Activity (Staphylococcus aureus [1]) | Activity (Human alphaherpesvirus 1) | Activity [2] | Activity (Staphylococcus aureus [3]) | Activity (Bacillus subtilis) | Activity (Streptococcus pyogenes) | Activity (HeLa) | Activity (Enterococcus faecalis) | Activity (Influenza A virus) | Activity (Coxsackievirus B1) | Activity (Staphylococcus aureus [4])
1 | CNC1=NC(=O)[C@@H]([C@@H](C)c2c[nH]c3ccccc23)S1 | inactive | inactive | Non-toxic | inactive | inactive | inactive | Non-toxic | inactive | inactive | inactive | inactive
2 | CNC1=NC(=O)[C@H]([C@H](C)c2c[nH]c3ccccc23)S1 |  | inactive |  |  |  |  |  |  |  |  | 
3 | CN(C)C1=NC(=O)C(Cc2c[nH]c3ccccc23)S1 (racemic) | inactive | inactive | Non-toxic | inactive | inactive | inactive | Non-toxic | inactive | inactive | inactive | inactive
4 | CCNC1=NC(=O)C(Cc2c[nH]c3ccccc23)S1 (racemic) | inactive | inactive | Non-toxic | inactive | inactive | inactive | Non-toxic | inactive | inactive | inactive | inactive
5 | O=C1N=C(NCCO)SC1Cc1c[nH]c2ccccc12 (racemic) | inactive | inactive | Non-toxic | inactive | inactive | inactive | Non-toxic | inactive | inactive | inactive | inactive
6 | O=C1N=C(NCc2ccccc2)SC1Cc1c[nH]c2ccccc12 (racemic) | inactive | inactive | Non-toxic | inactive | inactive | inactive | Non-toxic | inactive | inactive | inactive | inactive
7 | CNC1=NC(=O)C(Cc2cn(C)c3ccccc23)S1 (racemic) | inactive | inactive | Non-toxic | inactive | inactive | inactive | Non-toxic | inactive | inactive | inactive | inactive
8 | CN1C(=N)SC(Cc2c[nH]c3ccccc23)C1=O (racemic) | inactive | inactive | Non-toxic | inactive | inactive | inactive | Non-toxic | inactive | inactive | inactive | inactive
9 | C/N=C1/SC(Cc2c[nH]c3ccccc23)C(=O)N1C (racemic) | inactive | inactive | Non-toxic | inactive | inactive | inactive | Non-toxic | inactive | inactive | inactive | inactive
10 | CCN1C(=N)SC(Cc2c[nH]c3ccccc23)C1=O (racemic) | inactive | inactive | Non-toxic | inactive | inactive | inactive | Non-toxic | inactive | inactive | inactive | inactive
11 | CNC1=NC(=O)[C@H]([C@H](C)c2c[nH]c3ccccc23)S1 (racemic) |  | inactive |  |  |  |  |  |  |  |  | 
